According to patent publication US8541418B2, “Inhibitors of polo-like kinase” (Elan Pharmaceutical, Inc., priority 2009, dated 2013):

Columns and labels:
Assay type in all cases: biochemical
[1] = molecular target: PLK2 (Homo sapiens, UniProt Q9NYY3); assay: PLK TR-FRET peptide assay, PLK2; conditions: for IC50: PLK TR-FRET peptide assay, GST-PLK2, 60 min reaction, read-out: Plk2 IC50
[2] = molecular target: PLK3 (Homo sapiens, UniProt Q9H4B4); assay: PLK TR-FRET peptide assay, PLK3; conditions: GST-PLK3, 15 min reaction, read-out: Plk3 IC50
PLK3, sequence (Q9H4B4 whole entry): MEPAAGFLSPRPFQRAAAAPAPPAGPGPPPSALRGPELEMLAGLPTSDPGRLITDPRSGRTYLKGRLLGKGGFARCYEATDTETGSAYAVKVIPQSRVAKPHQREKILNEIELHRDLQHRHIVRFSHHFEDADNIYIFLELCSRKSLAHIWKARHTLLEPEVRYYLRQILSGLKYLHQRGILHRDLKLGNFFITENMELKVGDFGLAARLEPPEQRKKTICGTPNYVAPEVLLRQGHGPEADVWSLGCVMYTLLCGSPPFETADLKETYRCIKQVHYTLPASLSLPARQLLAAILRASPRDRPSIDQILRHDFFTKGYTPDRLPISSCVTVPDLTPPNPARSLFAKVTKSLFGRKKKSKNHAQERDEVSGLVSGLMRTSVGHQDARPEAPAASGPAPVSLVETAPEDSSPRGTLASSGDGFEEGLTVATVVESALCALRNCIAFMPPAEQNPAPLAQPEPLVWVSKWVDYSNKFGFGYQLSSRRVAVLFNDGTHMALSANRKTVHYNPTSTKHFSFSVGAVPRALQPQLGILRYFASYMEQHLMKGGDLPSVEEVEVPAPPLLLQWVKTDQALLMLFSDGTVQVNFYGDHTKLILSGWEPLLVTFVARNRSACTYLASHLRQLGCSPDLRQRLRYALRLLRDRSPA

[3] = molecular target: PLK1 (Homo sapiens, UniProt P53350); assay: PLK TR-FRET peptide assay, PLK1; conditions: GST-PLK1, 60 min reaction
PLK1, sequence (P53350 whole entry): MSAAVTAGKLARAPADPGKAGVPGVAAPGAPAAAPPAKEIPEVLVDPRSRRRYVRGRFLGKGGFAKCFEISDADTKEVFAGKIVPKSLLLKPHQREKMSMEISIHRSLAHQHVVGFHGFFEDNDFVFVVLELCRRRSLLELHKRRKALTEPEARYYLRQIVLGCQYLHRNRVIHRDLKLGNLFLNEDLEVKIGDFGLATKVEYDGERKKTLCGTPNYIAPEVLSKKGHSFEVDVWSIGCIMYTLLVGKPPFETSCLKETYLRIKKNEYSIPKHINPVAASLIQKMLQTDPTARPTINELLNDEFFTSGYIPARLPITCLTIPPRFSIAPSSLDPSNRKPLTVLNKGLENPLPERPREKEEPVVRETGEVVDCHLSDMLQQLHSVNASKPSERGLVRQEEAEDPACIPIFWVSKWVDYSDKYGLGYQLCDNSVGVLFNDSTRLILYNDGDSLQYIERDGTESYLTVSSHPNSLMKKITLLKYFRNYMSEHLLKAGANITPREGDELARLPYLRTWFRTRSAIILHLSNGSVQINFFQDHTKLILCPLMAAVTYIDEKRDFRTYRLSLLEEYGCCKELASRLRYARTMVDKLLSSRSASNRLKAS

PLK2, sequence (Q9NYY3 whole entry): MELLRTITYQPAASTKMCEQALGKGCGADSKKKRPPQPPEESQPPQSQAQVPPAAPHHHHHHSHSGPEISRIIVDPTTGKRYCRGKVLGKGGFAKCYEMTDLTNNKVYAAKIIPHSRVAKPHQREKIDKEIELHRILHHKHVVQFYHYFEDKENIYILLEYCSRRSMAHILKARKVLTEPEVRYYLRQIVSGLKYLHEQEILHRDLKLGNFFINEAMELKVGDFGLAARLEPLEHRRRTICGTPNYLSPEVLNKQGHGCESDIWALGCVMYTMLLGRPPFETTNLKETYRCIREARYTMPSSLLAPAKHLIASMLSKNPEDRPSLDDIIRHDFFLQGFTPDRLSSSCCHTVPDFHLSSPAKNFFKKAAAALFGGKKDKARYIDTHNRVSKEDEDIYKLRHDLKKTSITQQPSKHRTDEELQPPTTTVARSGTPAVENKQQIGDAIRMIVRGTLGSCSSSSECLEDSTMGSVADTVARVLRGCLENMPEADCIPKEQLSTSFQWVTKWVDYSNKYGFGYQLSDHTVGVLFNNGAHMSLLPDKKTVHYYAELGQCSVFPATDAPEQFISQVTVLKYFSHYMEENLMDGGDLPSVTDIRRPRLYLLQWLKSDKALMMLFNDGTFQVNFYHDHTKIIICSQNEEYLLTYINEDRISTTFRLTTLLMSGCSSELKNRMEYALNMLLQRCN

Compound | IC50 [1] [µM] | IC50 [2] [µM] | IC50 [3] [µM] | relative PLK2 activity of the enantiomers ([1]; compared with the opposite enantiomer)
CN1C(=O)[C@H](CC(F)(F)F)N(CCC(F)(F)F)c2nc(-n3ccnc3-c3ccc(F)cc3F)ncc21 [Example 294, (S)-2-(2-(2,4-difluorophenyl)-1H-imidazol-1-yl)-5-methyl-7-(2,2,2-trifluoroethyl)-8-(3,3,3-trifluoropropyl)-7,8-dihydropteridin-6(5H)-one] | 10 to 50 | > 50 | > 50 | –
CC[C@@H]1C(=O)N(C)c2cnc(-n3ccnc3)nc2N1C1CCOCC1 [Example 295, (R)-7-ethyl-2-(1H-imidazol-1-yl)-5-methyl-8-(tetrahydro-2H-pyran-4-yl)-7,8-dihydropteridin-6(5H)-one] | 1 to 10 | 10 to 50 | 1 to 10 | –
CC[C@@H]1C(=O)N(C)c2cnc(N3CCN=C3C3CC3)nc2N1C(C)C [Example 297, (R)-2-(2-cyclopropyl-4,5-dihydro-1H-imidazol-1-yl)-7-ethyl-8-isopropyl-5-methyl-7,8-dihydropteridin-6(5H)-one] | 10 to 50 | 10 to 50 | 10 to 50 | –
CC(C)N1c2nc(-n3ccnc3-c3ccc(F)cc3)ncc2N(C)C(=O)C1(C)C [Example 298, 2-(2-(4-fluorophenyl)-1H-imidazol-1-yl)-8-isopropyl-5,7,7-trimethyl-7,8-dihydropteridin-6(5H)-one] | 1 to 10 | > 50 | > 50 | –
CCC1C(=O)N(C)c2cnc(-n3ccnc3)nc2N1c1ccccc1 (stereo not shown) [Example 300, 7-ethyl-2-(1H-imidazol-1-yl)-5-methyl-8-phenyl-7,8-dihydropteridin-6(5H)-one] | 1 to 10 | > 50 | 1 to 10 | –
CN1C(=O)[C@@H](CC(F)(F)F)N(CCC(F)(F)F)c2nc(-n3ccnc3)ncc21 [Example 301, (R)-2-(1H-imidazol-1-yl)-5-methyl-7-(2,2,2-trifluoroethyl)-8-(3,3,3-trifluoropropyl)-7,8-dihydropteridin-6(5H)-one] | < 1 | 10 to 50 | 10 to 50 | more active compound
CN1C(=O)[C@H](CC(F)(F)F)N(CCC(F)(F)F)c2nc(-n3ccnc3)ncc21 [Example 302, (S)-2-(1H-imidazol-1-yl)-5-methyl-7-(2,2,2-trifluoroethyl)-8-(3,3,3-trifluoropropyl)-7,8-dihydropteridin-6(5H)-one] | 10 to 50 | > 50 | > 50 | –
CN1C(=O)C2CC3CC3N2c2nc(-n3ccnc3-c3ccccc3)ncc21 (stereo not shown) [Example 304, 5-Methyl-2-(2-phenyl-imidazol-1-yl)-7,7a,8,8a-tetrahydro-5H,6aH-1,3,5,8b-tetraaza-cyclopropa[4,5]cyclopenta[1,2-a]naphthalen-6-one] | 10 to 50 | > 50 | > 50 | –
CC[C@@]12CCCN1c1nc(-c3cn[nH]c3-c3ccccc3)ncc1N(C)C2=O [Example 305, (S)-6a-ethyl-5-methyl-2-(5-phenyl-1H-pyrazol-4-yl)-6a,7,8,9-tetrahydropyrrolo[2,1-h]pteridin-6(5H)-one] | < 1 | 10 to 50 | 1 to 10 | –
CC[C@@H]1C(=O)N(C)c2cnc(-c3cn[nH]c3-c3cscn3)nc2N1C1CCCC1 [Example 307, (R)-8-cyclopentyl-7-ethyl-5-methyl-2-(5-(thiazol-4-yl)-1H-pyrazol-4-yl)-7,8-dihydropteridin-6(5H)-one] | < 1 | < 1 | < 1 | –
CC[C@]1(C)C(=O)N(C)c2cnc(-c3cn[nH]c3-c3nccs3)nc2N1CCC(F)(F)F [Example 310, (R)-7-ethyl-5,7-dimethyl-2-(5-(thiazol-2-yl)-1H-pyrazol-4-yl)-8-(3,3,3-trifluoropropyl)-7,8-dihydropteridin-6(5H)-one] | < 1 | > 50 | < 1 | –
CC[C@@]12CCC(=O)N1c1nc(-n3ccnc3)ncc1N(C)C2=O [Example 311, (S)-6a-ethyl-2-(1H-imidazol-1-yl)-5-methyl-7,8-dihydropyrrolo[2,1-h]pteridine-6,9(5H,6aH)-dione] | > 50 | > 50 | > 50 | –
CC[C@@H]1C(=O)N(C)c2cnc(-c3cn[nH]c3-c3ccc(F)cc3F)nc2N1C(C)C [Example 312, (R)-2-(5-(2,4-difluorophenyl)-1H-pyrazol-4-yl)-7-ethyl-8-isopropyl-5-methyl-7,8-dihydropteridin-6(5H)-one] | < 1 | < 1 | < 1 | –
CC[C@@H]1C(=O)N(C)c2cnc(-c3cn[nH]c3-c3ccccn3)nc2N1C(C)C [Example 313, (R)-7-ethyl-8-isopropyl-5-methyl-2-(5-(pyridin-2-yl)-1H-pyrazol-4-yl)-7,8-dihydropteridin-6(5H)-one] | < 1 | 1 to 10 | 1 to 10 | –
CC[C@@]12CCCN1c1nc(-c3nccnc3-c3ccccc3)ncc1N(C)C2=O [Example 316, (S)-6a-ethyl-5-methyl-2-(3-phenylpyrazin-2-yl)-6a,7,8,9-tetrahydropyrrolo[2,1-h]pteridin-6(5H)-one] | 1 to 10 | 1 to 10 | 10 to 50 | –
CC[C@@H]1C(=O)N(C)c2cnc(-c3cn[nH]c3-c3cscn3)nc2N1C(C)C [Example 320, (R)-7-ethyl-8-isopropyl-5-methyl-2-(5-(thiazol-4-yl)-1H-pyrazol-4-yl)-7,8-dihydropteridin-6(5H)-one] | < 1 | 1 to 10 | 1 to 10 | –
CC[C@@H]1C(=O)N(C)c2cnc(-n3ccnc3-c3ccc(F)cc3)nc2N1CC1CC1 [Example 322, (R)-8-(cyclopropylmethyl)-7-ethyl-2-(2-(4-fluorophenyl)-1H-imidazol-1-yl)-5-methyl-7,8-dihydropteridin-6(5H)-one] | < 1 | 1 to 10 | 1 to 10 | –
CC[C@@H]1CC[C@@]2(CC)C(=O)N(C)c3cnc(-n4ccnc4C)nc3N12 [Example 325, (6aS,9R)-6a,9-diethyl-5-methyl-2-(2-methyl-1H-imidazol-1-yl)-6a,7,8,9-tetrahydropyrrolo[2,1-h]pteridin-6(5H)-one] | 1 to 10 | 10 to 50 | 10 to 50 | –
CN1C(=O)C2(CC(F)(F)F)CCCN2c2nc(-n3ccnc3)ncc21 (stereo not shown) [Example 329, 2-(1H-imidazol-1-yl)-5-methyl-6a-(2,2,2-trifluoroethyl)-6a,7,8,9-tetrahydropyrrolo[2,1-h]pteridin-6(5H)-one] | 10 to 50 | 10 to 50 | 10 to 50 | –
CC[C@@H]1C(=O)N(C)c2cnc(-c3nccs3)nc2N1C1CCCC1 [Example 330, (R)-8-cyclopentyl-7-ethyl-5-methyl-2-(thiazol-2-yl)-7,8-dihydropteridin-6(5H)-one] | < 1 | 10 to 50 | 1 to 10 | –
CCC1C(=O)N(C)c2cnc(-n3ccnc3)nc2N1c1cccc(-c2cncnc2)c1 (stereo not shown) [Example 333, 7-ethyl-2-(1H-imidazol-1-yl)-5-methyl-8-(3-(pyrimidin-5-yl)phenyl)-7,8-dihydropteridin-6(5H)-one] | 10 to 50 | > 50 | 10 to 50 | –
CC[C@@H]1CC[C@@]2(CC)C(=O)N(C)c3cnc(-n4ccnc4)nc3N12 [Example 334, (6aS,9R)-6a,9-diethyl-2-(1H-imidazol-1-yl)-5-methyl-6a,7,8,9-tetrahydropyrrolo[2,1-h]pteridin-6(5H)-one] | 1 to 10 | 10 to 50 | 1 to 10 | –
CC[C@@H]1C(=O)N(C)c2cnc(-n3ccnc3-c3ccccc3)nc2N1C1COC1 [Example 335, (R)-7-ethyl-5-methyl-8-(oxetan-3-yl)-2-(2-phenyl-1H-imidazol-1-yl)-7,8-dihydropteridin-6(5H)-one] | < 1 | 10 to 50 | 1 to 10 | –
CCC1C(=O)N(C)c2cnc(-n3ccnc3)nc2N1c1cccc(-n2cccn2)c1 (stereo not shown) [Example 336, 8-(3-(1H-pyrazol-1-yl)phenyl)-7-ethyl-2-(1H-imidazol-1-yl)-5-methyl-7,8-dihydropteridin-6(5H)-one] | 10 to 50 | > 50 | 10 to 50 | –
CC[C@@H]1C(=O)N(C)c2cnc(-c3sc(N)nc3-c3ccn[nH]3)nc2N1C(C)C [Example 337, (R)-2-(2-amino-4-(1H-pyrazol-5-yl)thiazol-5-yl)-7-ethyl-8-isopropyl-5-methyl-7,8-dihydropteridin-6(5H)-one] | < 1 | 1 to 10 | 1 to 10 | –
CC[C@@]12CCCN1c1nc(-c3cn[nH]c3-c3nccs3)ncc1N(C)C2=O [Example 338, (S)-6a-ethyl-5-methyl-2-(5-(thiazol-2-yl)-1H-pyrazol-4-yl)-6a,7,8,9-tetrahydropyrrolo[2,1-h]pteridin-6(5H)-one] | 10 to 50 | > 50 | > 50 | –
CN1C(=O)C2(CC(F)(F)F)CCCN2c2nc(-n3ccnc3-c3ccccc3)ncc21 (stereo not shown) [Example 339, 5-methyl-2-(2-phenyl-1H-imidazol-1-yl)-6a-(2,2,2-trifluoroethyl)-6a,7,8,9-tetrahydropyrrolo[2,1-h]pteridin-6(5H)-one] | < 1 | 10 to 50 | 10 to 50 | –
CC[C@@H]1CC[C@@]2(CC)C(=O)N(C)c3cnc(-c4cn[nH]c4-c4nccs4)nc3N12 [Example 340, (6aS,9R)-6a,9-diethyl-5-methyl-2-(5-(thiazol-2-yl)-1H-pyrazol-4-yl)-6a,7,8,9-tetrahydropyrrolo[2,1-h]pteridin-6(5H)-one] | < 1 | 1 to 10 | < 1 | –
CC[C@@H]1C(=O)N(C)c2cnc(-n3ccnc3-c3ccc(F)c(F)c3)nc2N1C1COC1 [Example 341, (R)-2-(2-(3,4-difluorophenyl)-1H-imidazol-1-yl)-7-ethyl-5-methyl-8-(oxetan-3-yl)-7,8-dihydropteridin-6(5H)-one] | 1 to 10 | > 50 | > 50 | –
